Experimental data from ChEMBL document CHEMBL1132844, “Assessment of substitution in the second pharmacophore of Dmt-Tic analogues” (Bioorg Med Chem Lett, 2000).
Activity calls are given as the source filed them. The rule behind the calls is not given here. Square brackets hold non-standard residues; d marks the D form. Peptide text beside a SMILES is read from it. ξ: configuration not given here. Dmt = Cc1cc(O)cc(C)c1C[C@H](N)C(=O)O; ξTic = O=C(O)C1Cc2ccccc2CN1

Key:
[1] = target: T1, Delta-type opioid receptor (Mus musculus, UniProt P32300); assay: (§1) Negative logarithm of the molar concentration of delta receptor was determined in mouse vas deferens; details: read-out: pA2 (converted)
Mu-type opioid receptor [2] = target: T2, Mu-type opioid receptor (Cavia porcellus, UniProt P97266); assay: Negative logarithm of the molar concentration for agonist activity at mu receptor was determined in guinea pig ileum; format: functional, tissue-based
[3] = target: Delta-type opioid receptor (Mus musculus) (UniProt P32300)
[4] = target: Delta-type opioid receptor (Mus musculus) (UniProt P32300); assay: Negative logarithm of the molar concentration of delta receptor was determined in mouse vas deferens; i represents inactivity up to 1 mM; format: functional
Mu-type opioid receptor [5] = target: T2, Mu-type opioid receptor; assay: Negative logarithm of the molar concentration for agonist activity at Opioid receptor mu 1 was determined in guinea pig ileum; format: functional, tissue-based
[6] = target: T1, Delta-type opioid receptor; assay: as §1; format: functional; details: read-out: pA2 (converted)

T2 sequence (P97266 whole entry): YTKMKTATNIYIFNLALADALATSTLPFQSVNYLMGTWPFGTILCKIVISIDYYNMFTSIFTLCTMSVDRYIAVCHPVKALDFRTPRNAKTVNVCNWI
Delta-type opioid receptor (Mus musculus), sequence (P32300 whole entry): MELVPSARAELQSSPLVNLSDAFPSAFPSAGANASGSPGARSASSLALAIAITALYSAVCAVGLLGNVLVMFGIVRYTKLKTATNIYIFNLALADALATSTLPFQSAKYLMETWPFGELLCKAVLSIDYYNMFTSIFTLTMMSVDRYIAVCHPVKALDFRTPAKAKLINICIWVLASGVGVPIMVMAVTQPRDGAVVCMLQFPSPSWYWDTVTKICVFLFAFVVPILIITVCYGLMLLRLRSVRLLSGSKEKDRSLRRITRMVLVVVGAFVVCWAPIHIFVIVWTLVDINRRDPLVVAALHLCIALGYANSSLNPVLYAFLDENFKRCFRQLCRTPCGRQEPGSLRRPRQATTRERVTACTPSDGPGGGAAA
T1 sequence (P32300 whole entry): as above

`Cc1cc(O)cc(C)c1C[C@H](N)C(=O)N1Cc2ccccc2CC1COCc1ccccc1` (some centres undefined) was tested, and the Kb [1] was 13.5 nM, the EC50 (Mu-type opioid receptor [2]) was 525 nM and the “Log EC50” value [3] was “inactive”.

For `Cc1cc(O)cc(C)c1C[C@H](N)C(=O)N1CCc2ccccc2C1`, the “Log EC50” value [4] was “inactive”, the Kb [1] was 38.9 nM and the EC50 (Mu-type opioid receptor [2]) was 490 nM.

For `Cc1cc(O)cc(C)c1C[C@H](N)C(=O)N1Cc2ccc(F)cc2CC1C(=O)O` (some centres undefined), the Kb [1] was 35.5 nM, the EC50 (Mu-type opioid receptor [2]) was 813 nM and the “Log EC50” value [3] was “inactive”.

In the case of `C[C@@H](NC(=O)[C@@H](N)Cc1ccc(O)cc1)C(=O)N[C@@H](Cc1ccccc1)C(=O)NCC(=O)N[C@@H](Cc1ccc(O)cc1)C(=O)N1CCC[C@H]1C(=O)N[C@@H](CO)C(N)=O` [DERMORPHIN], the EC50 (Mu-type opioid receptor [2]) is reported as 1.58 nM.

In the case of `Cc1cc(O)cc(C)c1C[C@H](N)C(=O)N1Cc2ccccc2CC1C(N)=O` (some centres undefined) (H-[Dmt]-[ξTic]-NH2), the EC50 (Mu-type opioid receptor [5]) is reported as greater than 10000 nM, the “Log EC50” value [4] is reported as “inactive” and the Kb [6] is reported as 63.1 nM.

`Cc1cc(O)cc(C)c1C[C@H](N)C(=O)N1CCc2ccc(F)cc2C1` was tested, and the Kb [1] was 617 nM, the EC50 (Mu-type opioid receptor [2]) was 631 nM and the “Log EC50” value [3] was “inactive”.

With `Cc1cc(O)cc(C)c1C[C@H](N)C(=O)N1Cc2ccccc2CC1CO` (some centres undefined) the EC50 (Mu-type opioid receptor [5]) was greater than 10000 nM, the “Log EC50” value [4] was “inactive” and the Kb [6] was 100 nM.
